Test results taken from US20250101052A1, “COMPOUND FOR EGFR KINASE INHIBITOR, COMPOSITION, AND USE THEREOF” (INNOVATION INSTITUTE FOR ARTIFICIAL INTELLIGENCE IN …, priority 2021, published 2025).

target: EGFR^L858R/T790M/C797S kinase (Homo sapiens (Human), UniProt P00533, C797S/L858R/T790M); assay: EGFR^L858R/T790M/C797S kinase inhibitory activity experiment; type: biochemical; conditions: in vitro
Description: EGFRL^858R/T790M/C797S kinase inhibitory activity experiment: The compounds of the present invention have excellent in-vitro inhibitory activity against EGFR^L858R/T790M/C797S kinase
• Centrifuge (manufacturer: Eppendorf, model: 5430) • Microplate reader (manufacturer: Perkin Elmer, model: Caliper EZ ReaderII) • Echo 550 (manufacturer: Labcyte, model: Echo 550) • Experimental Method • Compound preparation: • A 10 mM storage solution was prepared.
(1) 1×Kinase buffer was prepared.
(2) Preparation of concentration gradient of compound: The tested compound has a test concentration starting from 1 μM, diluted 10 times, with 10 concentrations, and subjected to single-well or multi-well detection. The compound was diluted to a 100% DMSO solution with a final concentration of 100 times in a 384 source plate. […] of the compound at a final concentration of 100 times was transferred to the target plate 384-well-plate using the pipette Echo 550.
(3) A kinase solution with a final concentration of 2.5 times was prepared using 1× Kinase buffer.
(4) 10 μL of the kinase solution with the final concentration of 2.5 times was added to a compound well and a positive control well, respectively; 10 μL of 1×Kinase buffer was added to a negative control well.
(5) Centrifugation was conducted at 1000 rpm for 30 seconds, and the reaction plate was shaken and mixed well, and incubated at a room temperature for 10 minutes.
(6) A mixed solution of ATP with a final concentration of 5/3 times and Kinase substrate 22 was prepared using 1×Kinase buffer.
(7) A mixed solution of 15 μL of ATP with a final concentration of 5/3 times and a substrate was added for initial reaction.
(8) The 384-well-plate was centrifuged at 1000 rpm for 30 seconds, shaken and mixed well, and incubated at a room temperature for 60 minutes.
(9) 30 μL of a termination detection solution was added to stop the kinase reaction. Centrifugation was conducted at 1000 rpm for 30 seconds. Shaking and mixing well were conducted.
(10) The conversion rate was read using Caliper EZ Reader.
where Conversion %_sample is the conversion rate reading of the sample; Conversion %_min: the average value of negative control wells, representing the conversion rate reading of wells without enzyme activity; Conversion %_max: the average value of positive control wells, representing the conversion rate reading of wells without compound inhibition; % Inhibition represents the inhibition rate.
Fitting of Dose-Response Curve
Using the log value of concentration as the X-axis and the percentage inhibition rate as the Y-axis, the dose-response curve was fitted using the log(inhibitor) vs. response —Variable slope of the analysis software GraphPad Prism 5 to obtain the IC50 value of each compound on enzyme activity.

Sequence of EGFR^L858R/T790M/C797S kinase (P00533 25-1210 T790M/C797S/L858R): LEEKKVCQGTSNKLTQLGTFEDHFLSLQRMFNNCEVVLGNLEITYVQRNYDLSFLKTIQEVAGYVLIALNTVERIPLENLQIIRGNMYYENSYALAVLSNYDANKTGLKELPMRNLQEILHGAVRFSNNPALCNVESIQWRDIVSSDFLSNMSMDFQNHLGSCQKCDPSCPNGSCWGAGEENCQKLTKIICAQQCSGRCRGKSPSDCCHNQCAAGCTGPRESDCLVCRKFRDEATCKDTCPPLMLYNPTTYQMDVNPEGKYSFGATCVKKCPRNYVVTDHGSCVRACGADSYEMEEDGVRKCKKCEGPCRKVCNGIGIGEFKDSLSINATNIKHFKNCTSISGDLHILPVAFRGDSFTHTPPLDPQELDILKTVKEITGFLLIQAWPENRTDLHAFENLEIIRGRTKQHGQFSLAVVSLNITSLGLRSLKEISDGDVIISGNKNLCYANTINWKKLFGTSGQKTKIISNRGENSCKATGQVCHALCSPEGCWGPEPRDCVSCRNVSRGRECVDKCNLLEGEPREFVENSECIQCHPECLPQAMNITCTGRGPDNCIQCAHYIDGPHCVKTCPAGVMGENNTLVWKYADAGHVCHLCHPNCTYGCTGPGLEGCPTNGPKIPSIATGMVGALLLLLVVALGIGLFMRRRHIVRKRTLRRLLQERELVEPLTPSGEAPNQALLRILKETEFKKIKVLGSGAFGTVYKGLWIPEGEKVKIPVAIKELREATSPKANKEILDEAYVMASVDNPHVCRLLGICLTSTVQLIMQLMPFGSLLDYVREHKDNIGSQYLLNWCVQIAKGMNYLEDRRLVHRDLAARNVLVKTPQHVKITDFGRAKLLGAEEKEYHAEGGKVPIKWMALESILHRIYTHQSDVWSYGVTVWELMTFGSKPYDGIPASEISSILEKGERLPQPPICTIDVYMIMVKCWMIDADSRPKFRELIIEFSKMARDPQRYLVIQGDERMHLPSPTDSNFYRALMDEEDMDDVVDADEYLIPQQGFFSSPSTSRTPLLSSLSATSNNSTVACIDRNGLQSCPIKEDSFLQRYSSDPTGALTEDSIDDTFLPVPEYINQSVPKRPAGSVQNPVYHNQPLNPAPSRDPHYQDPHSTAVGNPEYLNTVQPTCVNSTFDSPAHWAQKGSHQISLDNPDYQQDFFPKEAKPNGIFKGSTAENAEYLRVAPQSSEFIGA

SMILES	IC50 [nM]
COc1cc(N2CCC3(CC2)CC(N(C)C)C3)ccc1Nc1ncc(Cl)c(Nc2cc(C)c(C)cc2P(C)(C)=O)n1 [Compound 1, (6-((5-Chloro-2-((4-(2-(dimethylamino)-7-azaspiro[3.5]nonan-7-yl)-2-methoxyphenyl)amino)pyrimidin-4-yl)amino)-3,4-dimethylphenyl)dimethylphosphine oxide]	27
COc1cc(N2CC3(CCC(N(C)C)CC3)C2)c(C)cc1Nc1ncc(Cl)c(Nc2ccc(C)c(C)c2P(C)(C)=O)n1 [Compound 3, (6-((5-Chloro-2-((4-(7-(dimethylamino)-2-azaspiro[3.5]nonan-2-yl)-2-methoxy-5-methylphenyl)amino)pyrimidin-4-yl)amino)-2,3-dimethylphenyl)dimethylphosphine oxide]	21
COc1cc(N2CCC3(CCN(C)CC3)CC2)ccc1Nc1ncc(Cl)c(Nc2ccc(C)c(C)c2P(C)(C)=O)n1 [Compound 4, (6-((5-Chloro-2-((2-methoxy-4-(9-methyl-3,9-diazaspiro[5.5]undecan-3-yl)phenyl)amino)pyrimidin-4-yl)amino)-2,3-dimethylphenyl)dimethylphosphine oxide]	16
COc1cc(N2CCC3(CC2)CC(N(C)C)C3)c(C)cc1Nc1ncc(Cl)c(Nc2cc(C)c(C)cc2P(C)(C)=O)n1 [Compound 9, (2-((5-Chloro-2-((4-(2-(dimethylamino)-7-azaspiro[3.5]nonan-7-yl)-2-methoxy-5-methylphenyl)amino)pyrimidin-4-yl)amino)-4,5-dimethylphenyl)dimethylphosphine oxide]	7
CCc1cc(Nc2ncc(Cl)c(Nc3cc(C)c(C)cc3P(C)(C)=O)n2)c(OC)cc1N1CC2(CCC(N(C)C)CC2)C1 [Compound 10, (2-((5-Chloro-2-((4-(7-(dimethylamino)-2-azaspiro[3.5]nonan-2-yl)-5-ethyl-2-methoxypheny 1)amino)pyrimidin-4-yl)amino)-4,5-dimethylphenyl)dimethylphosphine oxide]	13
CCc1cc(Nc2ncc(Cl)c(Nc3cc(C)c(C)cc3P(C)(C)=O)n2)c(OC)cc1N1CCC(N2CCN(C)CC2)CC1 [Compound 11, (2-((5-chloro-2-((5-ethyl-2-methoxy-4-(4-(4-methylpiperazin-1-yl)piperidin-1-yl)phenyl)amino)pyrimidin-4-yl)amino)-4,5-dimethylphenyl)dimethylphosphine oxide]	5
CCc1cc(Nc2ncc(Cl)c(Nc3ccc(C)c(C)c3P(C)(C)=O)n2)c(OC)cc1N1CC2(CCN(CC(F)F)CC2)C1 [Compound 28]	0.99
CCc1cc(Nc2ncc(Cl)c(Nc3ccc(C)c(C)c3P(C)(C)=O)n2)c(OC)cc1N1CC2(CCC(CC#N)CC2)C1 [Compound 29, 2-(2-(4-((5-chloro-4-((2-(dimethylphosphoryl)-3,4-dimethylphenyl)amino)pyrimidin-2-yl)amino)-2-ethyl-5-methoxyphenyl)-2-azaspiro[3.5]nonane-7-yl)acetonitrile]	18.1
CCc1cc(Nc2ncc(Cl)c(Nc3ccc(C)c(C)c3P(C)(C)=O)n2)c(OC)cc1N1CCC2(CC1)CN(COC)C2 [Compound 31]	4.19
COc1cc(N2CC3(CCN(C)CC3)C2)c(Cl)cc1Nc1ncc(Cl)c(Nc2ccc(C)c(C)c2P(C)(C)=O)n1 [Compound 34]	0.84
CCN1CCC2(CC1)CN(c1cc(OC)c(Nc3ncc(Cl)c(Nc4ccc(C)c(C)c4P(C)(C)=O)n3)cc1Cl)C2 [Compound 35]	0.68
CCc1cc(Nc2ncc(Cl)c(Nc3cc(Cl)c(Cl)cc3P(C)(C)=O)n2)c(OC)cc1N1CC2(CCN(C3CC3)CC2)C1 [Compound 37]	0.49
CCc1cc(Nc2ncc(Cl)c(Nc3cc(Cl)c(Cl)cc3P(C)(C)=O)n2)c(OC)cc1N1CC2(CCN(CC(F)F)CC2)C1 [Compound 38]	0.59
COc1cc(N2CC3(CCN(C4CC4)CC3)C2)c(Cl)cc1Nc1ncc(Cl)c(Nc2cc(C)c(C)cc2P(C)(C)=O)n1 [Compound 41]	0.89
COc1cc(N2CC3(CCN(CC(F)F)CC3)C2)c(Cl)cc1Nc1ncc(Cl)c(Nc2cc(C)c(C)cc2P(C)(C)=O)n1 [Compound 42]	0.76

Continued, values first:

IC50 [nM]	SMILES
5	COc1cc(N2CCC(N3CCN(C)CC3)CC2)c(C)cc1Nc1ncc(Cl)c(Nc2ccc(C)c(C)c2P(C)(C)=O)n1 [BD-2, (6-((5-Chloro-2-((2-methoxy-5-methyl-4-(4-(4-methylpiperazin-1-yl)piperidin-1-yl)phenyl)amino)pyrimidin-4-yl)amino)-2,3-dimethylphenyl)dimethylphosphine oxide]
89	COc1cc(N2CC3(CCC(N(C)C)CC3)C2)ccc1Nc1ncc(Cl)c(Nc2ccc(C)c(C)c2P(C)(C)=O)n1 [Compound 2, (6-((5-Chloro-2-((4-(7-(dimethylamino)-2-azaspiro[3.5]nonane-2-yl)-2-methoxyphenyl)amino)pyrimidin-4-yl)amino)-2,3-dimethylphenyl)dimethylphosphine oxide]
8.3	CCc1cc(Nc2ncc(Cl)c(Nc3cc(C)c(C)cc3P(C)(C)=O)n2)c(OC)cc1N1CCC(N2CCOCC2)CC1 [Compound 14, (2-((5-chloro-2-((5-ethyl-2-methoxy-4-(4-morpholinopiperidin-1-yl)phenyl)amino)pyrimidin-4-yl)amino)-4,5-dimethylphenyl)dimethylphosphine oxide]
3.8	CCc1cc(Nc2ncc(Cl)c(Nc3cc(C)c(C)cc3P(C)(C)=O)n2)c(OC)cc1N1CCC(N2CC(N(C)C)C2)CC1 [Compound 15, (2-((5-chloro-2-((4-(4-(3-(dimethylamino)azetidin-1-yl)piperidine-1-yl)-5-ethyl-2-methoxyphenyl)amino)pyrimidin-4-yl)amino)-4,5-dimethylphenyl)dimethylphosphine oxide]
36	CCc1cc(Nc2ncc(Cl)c(Nc3cc(C)cc(C)c3P(C)(C)=O)n2)c(OC)cc1N1CCC2(CC1)CC(N(C)C)C2 [Compound 18, (2-((5-Chloro-2-((4-(2-(dimethylamino)-7-azaspiro[3.5]non-7-yl)-5-ethyl-2-methoxyphenyl)amino)pyrimidin-4-yl)amino)-4,6-dimethylphenyl)dimethylphosphine oxide]
29	CCc1cc(Nc2ncc(Cl)c(Nc3cc(C)c(C)cc3P(C)(C)=O)n2)c(OC)cc1N1CCC2(CC1)CN(C)C2 [Compound 20, (2-((5-Chloro-2-((5-ethyl-2-methoxy-4-(2-methyl-2,7-diazaspiro[3.5]non-7-yl)phenyl)amino)pyrimidin-4-yl)amino)-4,5-dimethylphenyl)dimethylphosphine oxide]
10	COc1cc(N2CCC3(CC2)CC(N(C)C)C3)c(F)cc1Nc1ncc(Cl)c(Nc2ccc(C)c(C)c2P(C)(C)=O)n1 [Compound 22]
0.74	CCc1cc(Nc2ncc(Cl)c(Nc3ccc(C)c(C)c3P(C)(C)=O)n2)c(OC)cc1N1CC2(CCN(CC3CC3)CC2)C1 [Compound 26]
0.81	CCc1cc(Nc2ncc(Cl)c(Nc3ccc(C)c(C)c3P(C)(C)=O)n2)c(OC)cc1N1CC2(CCN(CC)CC2)C1 [Compound 27]
6.78	CCc1cc(Nc2ncc(Cl)c(Nc3ccc(C)c(C)c3P(C)(C)=O)n2)c(OC)cc1N1CCC2(CC1)CN(C(C)=O)C2 [Compound 30, 1-(7-(4-((5-chloro-4-((2-(dimethylphosphoryl)-3,4-dimethylphenyl)amino)pyrimidin-2-yl)amino)-2-ethyl-5-methoxyphenyl)-2,7-diazaspiro[3.5]nonan-2-yl)ethan-1-one]
0.73	CCN1CCC2(CC1)CN(c1cc(OC)c(Nc3ncc(Cl)c(Nc4ccc(C)c(C)c4P(C)(C)=O)n3)cc1C)C2 [Compound 33]
0.96	CCc1cc(Nc2ncc(Cl)c(Nc3cc(Cl)c(Cl)cc3P(C)(C)=O)n2)c(OC)cc1N1CC2(CCN(C)CC2)C1 [Compound 36]
12.1	CCc1cc(Nc2ncc(Cl)c(Nc3cc(Cl)c(Cl)cc3P(C)(C)=O)n2)c(OC)cc1N1CC2(CCC(CC#N)CC2)C1 [Compound 39, 2-(2-(4-((5-chloro-4-((4,5-dichloro-2-(dimethylphosphoryl)phenyl)amino)pyrimidin-2-yl)amino)-2-ethyl-5-methoxyphenyl)-2-azaspiro[3.5]nonan-7-yl)acetonitrile]
0.85	COc1cc(N2CC3(CCN(C)CC3)C2)c(Cl)cc1Nc1ncc(Cl)c(Nc2cc(C)c(C)cc2P(C)(C)=O)n1 [Compound 40]
